Several values for one entry are separate records, joined by “and”; a condition that tells them apart may be missing. Equal entries are not always repeated.
Experiments:
[1] = PET imaging of brain in wild-type rats; assay type: in vivo, rat; conditions: i.v.
Method: All PET imaging studies were performed with a Mediso LFER 150 preclinical scanner (nanoScan PET/CT). Brain and brain region radioactivity uptake was expressed by standardized uptake value (SUV) which normalizes for injected radioactivity and monkey body weight, as follows: SUV = [(% injected dose per g tissue) × body weight in g]/100.
Animals were maintained under anesthesia with 1.5% isoflurane throughout the scan. Radioligand was injected intravenously via a penile vein catheter followed by PET imaging for 90 min. Brain uptake was expressed as standardized uptake value (SUV, concentration normalized by injected activity and body weight) and compared between the wild-type and self-blocked conditions.

[2] = Ex vivo measurements of radioactivity in rat brain and blood 100 min after i.v. injection
Method: Other experimental parameters that governed this study are listed in Supporting Information, Table S1. […] The rats were sacrificed via thoracotomy 100 min after radioligand injection. Anticoagulated blood was drawn from the myocardium followed by decapitation and harvesting of the brain. Each brain was removed, weighed, and immediately subjected to radio analysis after counting its concomitant radioactivity. Whole blood samples were removed and centrifuged to separate the plasma. Whole blood (300 µL each) and plasma samples (300 µL each) were also quantified for radioactivity in an automatic γ-counter (model 2480 Wizard 2; Perkin-Elmer) with an electronic window set at 360–1800 keV (counting efficiency, 51.84%). Briefly, plasma samples (~ 450 µL) were deproteinated with acetonitrile treatment (720 µL). The radioactivity of various plasma and brain tissues were counted in the γ-counter. Brain tissues were then homogenized in acetonitrile (1.0 mL) using a handheld tissue Tearor (model 985-370; BioSpec Products Inc; Bartlesville, OK), followed by a second homogenization in water (1.0 mL). The homogenates were counted in the γ-counter to calculate the percentage recovery of radioactivity in the acetonitrile extracts. Corrections of all tissue assays for physical decay were made with a half-life of 20.385 min. The homogenates were then centrifuged at 10,000g for 2 min. The clear supernatants were injected onto the HPLC column through nylon filters. For each sample, radioactivity in the resulting precipitate was used to calculate the percent recovery of activity into the acetonitrile supernatant.

[3] = Rat-3, blocked with uPSEM792, 100 min
[4] = Rat-3, blocked with uPSEM792 i.v. 15 min before radioligand, 100 min
[5] = baseline rats (Rat-1, Rat-2), 100 min
[6] = baseline rats (Rat-1, Rat-2), 100 min after injection
[7] = rat, ex vivo, 100 min after i.v. injection, HPLC

In the case of [11CH3]n1c(=O)cnc2cc3c(cc21)C1CNCC3C1 (stereo not shown) [[^11C]uPSEM792], the “peak whole brain radioactivity uptake” value [1] is reported as ~ 0.6 SUV and < 0.6 SUV, the “time of peak whole brain radioactivity” value [1] is reported as 5 min and the “Ex vivo brain” value [2, 3] is reported as 0.72 nM. For the same molecule, the “Ex vivo brain (SUV)” value [2, 3] was 0.401 SUV, the “Ex vivo plasma parent (SUV)” value [2, 3] was 0.064 SUV and the “Ex vivo whole blood (SUV)” value [2, 3] was 0.163 SUV. For the same molecule, the “HPLC Composition (%), ex vivo brain” value [2, 4] was 68.3%, the “HPLC Composition (%), ex vivo plasma” value [2, 4] was 37.1% and the “Ex vivo brain” value [2, 5] was 0.68 nM and 0.83 nM. For the same molecule, the “Ex vivo brain (SUV)” value [2, 5] was 0.407 SUV and 0.468 SUV, the “Ex vivo plasma parent (SUV)” value [2, 5] was 0.063 SUV and 0.064 SUV and the “Ex vivo whole blood (SUV)” value [2, 5] was 0.141 SUV and 0.163 SUV. For the same molecule, the “HPLC Composition (%), ex vivo brain” value [2, 6] was 78.3% and 75.6%, the “HPLC Composition (%), ex vivo plasma” value [2, 6] was 43.0% and 37.9% and the “total radioactivity concentration in rat brain” value ([2]; ex vivo, 100 min after i.v. injection) was ~ 0.4 SUV. The Kp at 100 min ([2]; male, brain and plasma, intravenous, rat, 100 min, read-out: fold lower concentration of unchanged radioligand in plasma than in brain) was 6.7, the “concentration of unchanged radioligand in plasma” value ([2]; rat, 100 min, n = 3) was 0.064 ± 0.001 SUV and the “unchanged radioligand as share of radioactivity in brain” value [2, 7] was 75.6%. The “unchanged radioligand fraction of all radioactivity in plasma” value [2, 7] was 37.9%.

Reference: article PMC10803328 (Scientific Reports, 2024)
